Measurements as given in patent US20120058133A1, “INHIBITION OF TRNA SYNTHETASES AND THERAPEUTIC APPLICATIONS THEREOF” (President and Fellows of Harvard College, priority 2009, published 2012).
Entries after “also recorded” stand apart in the source; their conditions may differ.

Assays:
[1] = test system: passive EAE in RAG2-deficient mice; assay: Passive EAE (transfer of PLP-reactive T cells); assay type: in vivo, mouse; settings: 2 μg HF daily i.p.
Source text: The ability of systemic HF treatment to block IL-17 expression and associated autoimmune inflammation in vivo was examined using two distinct models of experimental autoimmune encephalomyelitis (EAE). […] The second model, a passive model of EAE induction, is initiated by the transfer of myelin proteolipid protein (PLP)-reactive T cells into lymphopenic hosts.
Passive EAE was induced by intravenous transfer of purified CD3^+ splenic T cells isolated from PLP TCR transgenic B10.S mice into syngeneic RAG2-deficient mice (3×10^6 cells/mouse) (Waldner et al., J. Clin. Invest. 113(7):990-997, 2004).
Mice were injected daily with HF (2 μg/mouse) or vehicle control (DMSO) i.p. Clinical signs of EAE were assessed according to the following score: 0, no signs of disease; 1, flaccid tail; 2, weak gait/hind limb paresis; 3, hind limb paralysis; 4, tetraplegia; 5, moribund. Cytokine production during EAE was determined either in peripheral T cells isolated from spleen or lymph nodes of mice prior to disease onset (day 6-10) or in mononuclear cells isolated from the brain and spinal cords of mice with severe disease (clinical score ≧2) between days 15-20. Briefly, splenocytes were stained for intracellular cytokines following erythrocyte lysis with ammonium chloride buffer. T cells were isolated from brain and spinal cords of mice with active EAE following perfusion with cold PBS. […]

[2] = test system: murine CD4+ CD25− T cells, CD8+ T cells, B cells; settings: high concentrations; PCT/US08/09774; cited from earlier work
[3] = test system: GCN2 phosphorylation / AAR pathway; assay: AAR pathway activation in MEFs (GCN2, eIF2a phosphorylation, CHOP); assay type: cell-based, mouse
Method: FIG. 24. Activation of the AAR in cells by HF/FF occurs through inhibition of proline utilization. FIG. 24A is a gel showing HF-induction of the AAR pathway is reversed by proline. MEFs were treated with the indicated concentration of HF or FF in the presence or absence of 2 mM Proline for 2 hours (left) or treated with 1 μM borrelidin in the presence or absence of 2 mM Threonine for 2 hours (right). Cells were lysed and assessed by anti-pGCN2 or anti-GCN2 Western blot. Data are representative of three separate experiments.
FIG. 24B is a gel showing HF induction of eIF2a phosphorylation and CHOP expression is GCN2 dependent. Wild Type or GCN2−/− MEFs were treated with 50 nM HF in the presence or absence of 2 mM proline. Cells were lysed at 2 hours post-HF addition (peIF2a) or 6 hours post-HF addition (CHOP) and analyzed for phosphoprotein or total protein levels by Western blot.

[4] = test system: TGFβ signaling; settings: literature reports; cited from earlier work
[5] = molecular target: T1, prolyl tRNA synthetase (Oryctolagus cuniculus, UniProt G1T2I4); assay: tRNA charging in RRL (14C Pro or 35S Met incorporation into tRNA); assay type: biochemical, rabbit
T1 construct: from tissue; host or cells: rabbit reticulocyte lysate (RRL)
Method: FIG. 23D is a graph showing that HF inhibits prolyl tRNA synthetase activity in RRL. ^14C Pro or ^35S Met were incubated with RRL and total bovine tRNA in the presence or absence of HF or MAZ1310, and incorporation of radioactivity into tRNA was measured by liquid scintillation counting. Error bars reflect standard deviation of triplicate determinations. Data are representative of two separate experiments.
The effects of HF on prolyl-tRNA charging was examined. RRL were supplemented with ^14C-Pro or ^35S-Met in the presence or absence of HF, and total tRNA was isolated (FIG. 23D).

[6] = test system: mTOR pathway; assay: mTOR pathway signaling in fibroblasts; assay type: cell-based, mouse; settings: 100 nM HF
Method: FIG. 25. […] MEFs growing in DME/10% FCS were treated with 100 nM HF or 0.5 μM Rapamycin and analyzed by Western blot for phosphorylation of component of the mTor signaling pathway. Lane 1: 100 nM MAZ1310 1 hr; Lane 2: 100 nM HF 8 hr; Lane 3: 100 nM HF 4 hr; Lane 4: 100 nM HF 2 hr; Lane 5: 100 nM HF 1 hr; Lane 6: 0.5 μM Rapamycin 1 hr.

T1 sequence (G1T2I4 1-1447): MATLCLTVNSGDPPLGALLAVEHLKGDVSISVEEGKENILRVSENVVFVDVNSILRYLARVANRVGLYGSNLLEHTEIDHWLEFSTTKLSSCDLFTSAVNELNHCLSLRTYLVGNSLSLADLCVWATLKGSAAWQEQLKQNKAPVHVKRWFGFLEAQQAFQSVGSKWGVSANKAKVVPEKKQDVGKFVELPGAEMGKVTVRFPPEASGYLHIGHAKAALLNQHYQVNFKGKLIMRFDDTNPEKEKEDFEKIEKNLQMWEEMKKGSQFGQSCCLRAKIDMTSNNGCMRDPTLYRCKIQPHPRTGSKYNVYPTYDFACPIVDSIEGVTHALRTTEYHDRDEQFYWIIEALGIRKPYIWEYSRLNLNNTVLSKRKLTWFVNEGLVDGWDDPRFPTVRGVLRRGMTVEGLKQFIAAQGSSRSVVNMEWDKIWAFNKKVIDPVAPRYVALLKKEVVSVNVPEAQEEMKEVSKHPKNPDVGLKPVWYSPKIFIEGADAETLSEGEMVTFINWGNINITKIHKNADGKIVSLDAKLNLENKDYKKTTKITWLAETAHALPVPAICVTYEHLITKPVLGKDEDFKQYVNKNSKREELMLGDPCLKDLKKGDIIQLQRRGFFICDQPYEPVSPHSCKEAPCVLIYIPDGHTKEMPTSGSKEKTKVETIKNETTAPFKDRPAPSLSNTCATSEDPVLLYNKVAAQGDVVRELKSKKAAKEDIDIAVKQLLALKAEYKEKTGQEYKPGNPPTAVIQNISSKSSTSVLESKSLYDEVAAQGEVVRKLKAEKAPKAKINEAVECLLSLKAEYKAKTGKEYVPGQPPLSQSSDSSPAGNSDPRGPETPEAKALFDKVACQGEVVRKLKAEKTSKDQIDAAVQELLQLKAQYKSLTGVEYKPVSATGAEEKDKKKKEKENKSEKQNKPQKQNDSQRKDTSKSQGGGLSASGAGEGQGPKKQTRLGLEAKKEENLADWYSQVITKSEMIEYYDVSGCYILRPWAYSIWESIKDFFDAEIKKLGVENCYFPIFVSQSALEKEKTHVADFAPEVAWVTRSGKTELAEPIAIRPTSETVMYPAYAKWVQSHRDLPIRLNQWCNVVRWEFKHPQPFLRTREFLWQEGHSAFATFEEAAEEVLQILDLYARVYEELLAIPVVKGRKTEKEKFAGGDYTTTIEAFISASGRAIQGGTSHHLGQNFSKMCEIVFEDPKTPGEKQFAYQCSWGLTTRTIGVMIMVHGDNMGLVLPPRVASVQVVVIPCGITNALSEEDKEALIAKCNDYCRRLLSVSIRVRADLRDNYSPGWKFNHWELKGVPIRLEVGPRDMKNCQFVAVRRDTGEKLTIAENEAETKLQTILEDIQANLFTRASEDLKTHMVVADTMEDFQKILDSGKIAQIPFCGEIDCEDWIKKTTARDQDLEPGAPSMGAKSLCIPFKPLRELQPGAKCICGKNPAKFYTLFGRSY

O=C(CC1NCCCC1O)Cn1cnc2cc(Br)c(Cl)cc2c1=O (racemic) [HF, halofuginone]
disease in passive EAE model [1]: kinetics and severity similar to control treated animals; also recorded: had no effect on an independent, passive model of EAE
concentrations generally inhibiting CD4+ T cell, CD8+ T cell, and B220+ B cell activation [2]: 20 to 40 nM
eIF2-alpha phosphorylation and CHOP induction in wild type vs GCN2−/− fibroblasts ([3]; 50 nM HF): absent in GCN2−/− fibroblasts
reversal of GCN2 phosphorylation by cognate amino acid ([3]; 2 mM proline or 2 mM threonine): abrogated by the addition of 2 mM proline
GCN2 phosphorylation in fibroblasts ([3]; 2 hours, borrelidin 1 μM): Stimulation of GCN2 phosphorylation
concentration at which HF can attenuate TGFβ signaling [4]: > 50 nM
incorporation of 14C-Pro into tRNA [5]: inhibited
signaling downstream of mTOR [6]: does not directly inhibit downstream targets of the mTOR pathway; also recorded: did not inhibit signaling downstream of mTOR; also recorded: without concomitant inhibition of mTOR signaling
